Patent publication US20040014738A1 (priority 2000, published 2004)

Columns and labels:
Pseudomonas aeruginosa = experiment: Photodynamic inactivation of Pseudomonas aeruginosa in stem cell-containing solution; format: cell-based; conditions: 25 μM sensitizer, light >600 nm, 35 mW/cm^2, about 10^5 bacteria/ml in stem cell solution (FIG. 1)
Description: Photodynamic Treatment of Stem Cell-Containing Solution Contaminated with Pseudomonas
(§1) The following parameters were measured:
Inactivation of P. aeruginosa; and […]

[1] = test system: stem cells from umbilical cord blood
Description: Stem cells were isolated from fresh umbilical cord blood using hydroxy ethylstarch (HES) sedimentation (Perutelli P. et al, Vox Sang. 76(4) pp 237-40 (1999); Adorno G. et al, Clin. Lab. Haematol. 20(6) pp 341-3 (1998)). The resulting solution contained 20*10^6 cells/ml, as determined using an automatic cell counter (Sysmex K1000, TOA Medical Electronics, Kobe, Japan).
Stock solutions of Pseudomonas aeruginosa were added to the stem cell solution such that the volume of the spike was <10% of the total volume of the solution, and the number of bacteria was about 10^5/ml. A sensitizer, monophenyl-tri(N-methyl-4-pyridyl)porphyrin chloride (TriP(4), Mid-Century, Posen, Ill. USA), was added to a final concentration of 25 μM. The suspension were thoroughly mixed and divided into 3-ml aliquots in polystyrene culture dishes with a diameter of 6 cm (Greiner, Alphen a/d Rijn, the Netherlands), and agitated at room temperature on a horizontal reciprocal shaker (60 cycles/min, GFL, Burgwedel, Germany) for 5 min. in the dark. […] The irradiance at the cell layer was 35 mW/cm^2, as measured with an IL1400A photometer equipped with a SEL033 detector (International Light, Newburyport, Mass. USA). The following parameters were measured:
Influence of the treatment on stem cell differentiation (as measured by cfu-e, bfu-e, cfu-m, cfu-gm, and cfu-gem). […]

[2] = test system: CD34-positive cells (stem cells); experiment: Viability of the stem cells after photodynamic treatment; format: cell-based; conditions: 25 μM sensitizer, illumination 1 hour, vs control (no illumination, no sensitizer) (FIG. 2)
Description: as §1
Viability of the stem cells.

C[n+]1ccc(-c2c3nc(c(-c4cc[n+](C)cc4)c4ccc([nH]4)c(-c4cc[n+](C)cc4)c4nc(c(-c5ccccc5)c5ccc2[nH]5)C=C4)C=C3)cc1.[Cl-].[Cl-].[Cl-] [TriP(4), monophenyl-tri(N-methyl-4-pyridyl)porphyrin chloride]
Inactivation of P. aeruginosa (Pseudomonas aeruginosa): effectively killed | CFU-Mk, PDT (60′) [1]: 38 | viability of CD34-positive cells (stem cells) [2]: remains within the error margin for the control experiment
